The values below are quoted from earlier work in patent publication US20140161876A1, “LIPOSOME-CONTAINING PREPARATION UTILIZING DISSOLUTION AID, AND METHOD FOR PRODUCING SAME” (KONICA MINOLTA, INC., priority 2011, published 2014).

Values after ≈ are worked out from the molar mass of the structure shown.

The conditions of this series: drug encapsulated, Tables 3 and 4.

As to `COc1cc([C@@H]2c3cc4c(cc3[C@@H](O[C@@H]3O[C@@H]5CO[C@@H](C)O[C@H]5[C@H](O)[C@H]3O)[C@H]3COC(=O)[C@H]23)OCO4)cc(OC)c1O` [etoposide], the Solubility in water is 0.5 mg/mL (≈ 0.85 mM).
Take `Nc1nc(=O)c2c([nH]1)NC[C@H](CNc1ccc(C(=O)N[C@@H](CCC(=O)O)C(=O)O)cc1)N2C=O` [levofolinate]: the Solubility in water was 20 mg/mL (≈ 42.2 mM).
